Structures are written as SMILES. Active and inactive are the calls of the source. No rule for the calls is given here.

In the test the target is Serine/threonine-protein phosphatase PP1-alpha catalytic subunit (Homo sapiens) (UniProt P62136). As to the kind of experiment: PP1 inhibitors, OMFP dephosphorylation, late-stage follow-up, biochemical, fluorescence, OMFP substrate, set 3 (AID 652213). The following applies: purified PP1, OMFP dephosphorylation, at 6.7 µM (top of the series).
Sequence of Serine/threonine-protein phosphatase PP1-alpha catalytic subunit (Homo sapiens) (P62136 whole entry, looked up): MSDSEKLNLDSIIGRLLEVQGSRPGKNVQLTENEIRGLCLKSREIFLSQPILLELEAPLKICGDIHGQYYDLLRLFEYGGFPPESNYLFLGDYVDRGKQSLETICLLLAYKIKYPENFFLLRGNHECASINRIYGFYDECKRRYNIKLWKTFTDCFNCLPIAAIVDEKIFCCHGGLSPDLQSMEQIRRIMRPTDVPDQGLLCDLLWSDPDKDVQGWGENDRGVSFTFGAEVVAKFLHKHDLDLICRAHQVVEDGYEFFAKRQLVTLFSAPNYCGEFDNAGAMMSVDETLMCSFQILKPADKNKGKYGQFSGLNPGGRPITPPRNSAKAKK
With `CCOc1ccc(NC(=S)Nc2ccc3nsnc3c2)cc1`, the activity was 2.39% (inactive). The figure for `CCCCn1c(NC(=O)c2ccco2)c(C(=O)OCC)c2nc3ccccc3nc21` is -8.57% (inactive). In the case of `COc1ccccc1Sc1nc(-c2ccccn2)ncc1OC`, the activity was 63.1%. With `COc1ccc(NC(=O)C2C3CCC(O3)C2C(=O)O)c(OC)c1` (centres undefined), the activity was 35.3%. The figure for `CCOC(=O)c1cnc(-n2nc(C)cc2C)nc1NC1CCCCC1` is 59.7%; for `CCOC(=O)c1sc2nc3c(SCC(=O)O)cc(C(=O)c4cc(F)ccc4O)cn3c(=O)c2c1C` it is 65.9%. The figure for `COc1cnc(-c2ccccn2)nc1Sc1ccccc1` is 64.9%; for `Clc1ccc(-n2nnnc2-c2cnc(-c3ccccn3)nc2-c2cccs2)cc1` it is 66.6%; for `COc1ccc(Cn2c(N)c(C(=O)NCc3ccco3)c3nc4ccccc4nc32)cc1OC` it is 3.93% (inactive). The same measure for `COc1cnc(-c2ccccn2)nc1Sc1ccc(F)cc1`: 53.8%. Consider `CCOC(=O)c1cnc(-n2nc(C)cc2C)nc1NCCc1ccccc1`, for which the activity is 68.3%. For `Cc1ccc(C(=O)NC2(O)C(=O)c3ccccc3C2=O)cc1C`, the activity was 1.19% (inactive).

Regarding `O=C(NC1(O)C(=O)c2ccccc2C1=O)c1ccc(C(F)(F)F)cc1`, the activity is 8.58% (inactive).

For the compound `Oc1cccc(/C=N/Nc2cc(N3CCCC3)nc(N3CCCC3)n2)c1`, the activity is 18.5% (inactive).

Take `O=C(O)c1cc(-c2ccc(Cl)c(Cl)c2)n(-c2ccc(F)cc2)n1`: the activity is 57.7%. In the case of `c1ccc(Nc2nc(-c3ccccn3)cs2)cc1`, the activity is 62%.

As to `Cc1ccc(-n2nc(C(=O)O)cc2-c2ccc(Cl)cc2)cc1`, the activity is 54.8%.

As for `O=C(NC1(O)C(=O)c2ccccc2C1=O)c1ccccc1`, the activity was -6.67% (inactive). The figure for `COc1cnc(-c2ccccn2)nc1Sc1ccccc1Cl` is 68.7%; for `CCOC(=O)c1nn(-c2ccc(C)cc2)c(=O)c2c(N)scc12` it is 4.75% (inactive). The same measure for `COc1ccc(C(=O)c2nccc3cc(OC)c(OC)cc23)cc1OC`: 5.53% (inactive). The figure for `O=S(=O)(Cc1cc(NCc2ccccc2)nc(-c2ccccn2)n1)c1ccccc1` is 50%; for `CCOC(=O)c1cnc(-n2nc(C)cc2C)nc1NCc1ccccc1` it is 62.5%; for `COc1cnc(-c2ccccn2)nc1Sc1ccc(C)cc1` it is 62.9%. `COc1ccc(Cl)cc1C(=O)Nc1cccc(-c2ccc3nncn3n2)c1`: the activity is 56.6%. `O=C1Nc2ccccc2N2CCCC12` (centres undefined): the activity was -7.49% (inactive). With `O=C(O)C1C2CCC(O2)C1C(=O)NC1CCCCC1` (centres undefined), the activity is 26.2% (inactive). The same measure for `CCOC(=O)c1sc(N2C(=O)C(O)=C(C(=O)c3ccco3)C2c2cccc([N+](=O)[O-])c2)nc1C` (centres undefined): 26.6%; for `O=C1CCCC2=C1C1(O)C(=O)c3ccccc3C1(O)O2` (centres undefined): 3.07% (inactive). On to `c1ccc(-c2nccc(-c3ccc(-n4cnc5ccccc54)cc3)n2)nc1`, for which the activity was 62.4%.

Turning to `COc1ccc(NC(=S)Nc2ccc3nsnc3c2)cc1`, the activity was -1.36% (inactive). In the case of `CC(C)(CS(=O)(=O)[O-])NC(=O)CC[N+](C)(C)CCO`, the activity is 49.7%. The same measure for `CCn1c2ccccc2c2cc(NC(=O)COC(=O)c3ccc(NC(=O)CC#N)cc3)ccc21`: 49%; for `O=c1[nH]c(Nc2ccccc2)cc2ccccc12`: 4.07% (inactive).

For `COc1ccc(CN2C(=O)Cc3c2nc(N)c2c(N)nc(N4CCCCC4)c(C#N)c32)cc1`, the activity is -0.66% (inactive). For the compound `COc1ccc(OCCCC(=O)Nc2nc(-c3ccccn3)cs2)cc1`, the activity is 26.8%.

In the case of `Nc1nc(-c2ccccn2)nc(N)c1Cc1ccc(Cl)cc1Cl`, the activity was 67.1%.

On to `Oc1ccccc1/C=N/Nc1cc(N2CCCC2)nc(N2CCCC2)n1`, for which the activity was 4.03% (inactive).

As to `CCOC(=O)c1cnc(-n2cc(C)cn2)nc1NCc1ccc2c(c1)OCO2`, the activity was 16.5% (inactive). The same measure for `N#Cc1c(N2CCCC(O)C2)nc(N)c2c(N)nc3c(c12)CC(=O)N3C12CC3CC(CC(C3)C1)C2` (centres undefined): 5.14% (inactive).

Turning to `O=C(O)c1cc(-c2ccc(Cl)cc2)n(-c2cccc(Cl)c2)n1`, the activity is 55.6%. The same measure for `COc1cnc(-c2ccccn2)nc1Sc1ccc(Cl)cc1`: 54.6%; for `COc1ccc2c(Cl)c(C(=O)N/N=C/c3ccc4c(c3)OCO4)sc2c1`: 20.2% (inactive). The same measure for `Cc1ccc(C(=O)NNc2cc(N3CCCC3)nc(N3CCCC3)n2)cc1`: 4.62% (inactive); for `COc1cnc(-c2ccccn2)nc1Oc1cccc(C(F)(F)F)c1`: -4.64% (inactive); for `CN1CCN(C(c2ccccn2)c2cc(Cl)c3cccnc3c2O)CC1` (centres undefined): 69.7%. In the case of `CCOC(=O)C1=C(C)OC2(O)c3ccccc3C(=O)C12O` (centres undefined), the activity is 27.1% (inactive).

As to `COc1cnc(-c2ccccn2)nc1Sc1cccc(Cl)c1`, the activity was 64.1%. On to `COc1cc(Br)c(C(=O)c2nccc3cc(OC)c(OC)cc23)cc1OC`, for which the activity was -11.4% (inactive). For `CC(=O)C(C(C)=O)C1(O)C(=O)c2ccccc2C1=O`, the activity was 1.17% (inactive). The figure for `Cc1nnc(NC(=O)C2C3C=CC(O3)C2C(=O)O)s1` (centres undefined) is 2.61% (inactive); for `COc1cnc(-c2ccccn2)nc1Oc1cccc(Cl)c1` it is 46.4%; for `CCCCN(CC)c1nc(N)c2c(N)nc(OCC)cc2c1C#N` it is 4.31% (inactive). The same measure for `COc1ccc(Sc2nc(-c3ccccn3)ncc2OC)cc1`: 72.4%; for `N#Cc1c(-c2ccc(Cl)cc2)cc(-c2cccs2)nc1SCC(=O)O`: 45.4%. Regarding `CCCN(CC1CC1)c1nc(N)c2c(N)nc(OC)cc2c1C#N`, the activity was 0.2% (inactive). As for `CCOC(=O)c1cnc(-n2nc(C)cc2C)nc1NC(C)c1ccccc1` (centres undefined), the activity was 69.4%. Consider `Cc1cc(C)c(S(=O)(=O)/N=C2\C=C(Sc3ncn[nH]3)C(=O)c3ccccc32)cc1C`, for which the activity is 5.84% (inactive). As for `O=C(Nc1nc(-c2ccccn2)cs1)C1CC(=O)N(c2ccc3c(c2)OCCO3)C1` (centres undefined), the activity was 42.3%. The figure for `Oc1ccc(/C=N/Nc2cc(N3CCOCC3)nc(N3CCOCC3)n2)c(O)c1` is 7.02% (inactive). The same measure for `Cc1[nH]n(-c2ccccc2)c(=O)c1C(c1ccc([N+](=O)[O-])cc1)c1c(C)[nH]n(-c2ccccc2)c1=O`: -6.69% (inactive); for `O=C(NC1(O)C(=O)c2ccccc2C1=O)c1c(Cl)cccc1Cl`: -3.06% (inactive). The figure for `Nc1cc2nsnc2cc1Br` is -10.1% (inactive); for `O=C(O)c1cc(-c2ccc(Cl)c(Cl)c2)n(-c2ccccc2)n1` it is 59.9%.

Values taken from PubChem BioAssay AID652213 (The Scripps Research Institute Molecular Screening Center, 2013).
